{
  "source": "patent US12215351B2",
  "about": "“Methods for inducing hematopoietic stem cell specificity” (THE CHILDREN'S MEDICAL CENTER CORPORATION, priority 2017, dated 2025)",
  "key": {"Runx1:GFP": {"system": "Runx1:GFP", "assay": "High-throughput image-based chemical screen in Runx1:GFP zebrafish embryo cultures", "format": "cell-based", "conditions": "confirmed by a dose response curve", "procedure": "Stage-matched zebrafish embryos were dissociated at 24 hpf and grown in medium composed of 85% LDF medium, 5% FBS, and 10% embryo extract. LDF medium contains 50% Leibowitz's L-15 (Invitrogen), 20% DMEM (Invitrogen), and 30% DMEM/F-12 (Invitrogen), supplemented with 2% B27 (Gibco), 15 mM HEPES (Gibco), 1% L-glutamine (Gibco), 1% N2 (Gibco), 10 nM sodium selenite (Sigma), 0.018% sodium bicarbonate (Gibco), 0.04% Primocin (Invivogen), and 0.2% Penicillin-Streptomycin (Gibco). All zebrafish experiments and procedures were performed as per protocols approved by the Boston Children's Hospital IACUC.\nTo screen each chemical library plate in duplicate, two 384-well plates were coated with 0.1% gelatin. Runx1:GFP^10 embryos at 24 hpf were washed with E3 embryo water and dechorionated with pronase. Embryos were washed with E3 embryo water, resuspended in blastomere media, mechanically homogenized, and filtered through a 40 µm nylon mesh filter. […]\nA 4× image of the nuclear and fluorescent expression from the entire well was then thresholded and percent area was computed using ImageJ/Fiji. […] From that standard curve, residuals were calculated for each treated well and divided by the standard deviation in the control wells to obtain the z-score of each chemical treatment. […]"}, "[1]": {"system": "Runx1:GFP positive cells in the CHT", "assay": "Runx1:GFP positive cells in the CHT of live embryos (confocal imaging)", "format": "in vivo, zebrafish", "conditions": "5 μM", "procedure": "Transgenic Runx1:GFP embryos from the same clutch were treated at the time points indicated (n>10 embryos per treatment group) with 5 μM Ro5-3335 diluted in E3. Live embryos were embedded in 0.8% low-melting point agarose containing 0.04 mg/mL Tricaine and imaged on a Nikon Eclipe Ti microscope with 20× Plan-Apo DIC N.A. 0.75. CHT cells were counted blindly in Z-stack image projections processed on Imaris software (Bitplane)."}, "[2]": {"system": "Runx1:GFP+ cells derived from the zebrafish embryo culture", "assay": "Zebrafish transplantation of cultured Runx1:GFP+ cells into casper recipients, whole kidney marrow FACS", "format": "in vivo", "conditions": "cells cultured 2 days with 50 μM, analyzed approximately 3 months post-transplant", "procedure": "Runx1:GFP ubi:mCherry embryos were dissociated at 24 hpf and plated with 50 μM Ro5-3335 or DMSO. After two days in culture, double-positive cells were sorted and transplanted into 48 hpf casper recipients as previously described^10. The recipients were grown to adulthood and the whole kidney marrow was dissected at approximately 3 months and analyzed in an LSRII (BD Biosciences). As negative and positive controls, the kidney marrow of two casper adults and one Runx1:GFP ubi:mCherry adult were analyzed."}, "[3]": {"system": "human iPSC-derived hemogenic endothelium cells", "assay": "Human EHT culture of iPSC-derived hemogenic endothelium, FACS for CD34 and CD45", "format": "cell-based", "conditions": "day 6 of EHT", "procedure": "(§1) Human iPSCs were cultured and differentiated into embryoid bodies as previously described^28. At day 8 of embryoid body differentiation, HE cells were magnetically purified for EHT, and treated with DMSO or Ro5-3335. FACS analysis for CD34 and CD45 was performed at day 6 of EHT using an LSRFortessa™ (BD Biosciences). In the case of the RUNX1c-reporter cell line^21, RUNX1c activity was analyzed at day 4 of EHT using an LSR Fortessa (BD Biosciences)."}, "RUNX1c+24 reporter": {"system": "RUNX1c+24 reporter", "assay": "RUNX1c-enhancer reporter cell line undergoing EHT", "format": "cell-based, human", "conditions": "day 4 of EHT", "procedure": "as §1"}, "[4]": {"system": "iPSC-derived human hemogenic endothelium cells", "assay": "Intrafemoral transplantation of treated human HE cells into NOD/LtSz-scidIL2Rgnull mice", "format": "in vivo", "conditions": "HE cells treated with 25 μM, 6 weeks post-transplant", "procedure": "Intrafemoral transplantations were performed as described previously^28. NOD/LtSz-scidIL2Rgnull mice (Jackson Laboratory) were transplanted with approximately 100,000 HE cells at day 4 that were treated with 25 μM Ro5-3335 or DMSO. Due to the limited cell number that can be obtained during EHT, the transplants were performed over the course of several weeks."}},
  "data": [
    {"molecule": "O=C1CN=C(c2ccc[nH]2)c2cc(Cl)ccc2N1", "note": "[Ro5-3335, 7-Chloro-1,3-dihydro-5-(1H-pyrrol-2-yl)-2H-1,4-benzodiazepin-2-one]", "values": [
      {"measurement": "GFP signal in the embryo cultures", "setting": "Runx1:GFP", "value": "increased"},
      {"measurement": "number of Runx1:GFP+ cells in the CHT at 54 hpf", "setting": "[1]; treated 24-30 hpf, imaged at 54 hpf", "value": "significant increase"},
      {"measurement": "number of Runx1:GFP+ cells in the CHT at 72 hpf", "setting": "[1]; treated 24-30 hpf, same embryos at 72 hpf", "value": "A significant difference at 72 hpf was not observed"},
      {"measurement": "Runx1:GFP positive cells in the CHT", "setting": "[1]; treated 24-48 hpf, imaged at 54 hpf", "value": "increased"},
      {"measurement": "Runx1:GFP positive cells in the CHT", "setting": "[1]; treated 24-54 hpf, imaged at 54 hpf", "value": "increased"},
      {"measurement": "Runx1:GFP positive cells in the CHT", "setting": "[1]; treated 24-72 hpf, imaged at 72 hpf", "value": "increased"},
      {"measurement": "GFP+ chimerism in kidney marrow of adult casper recipients", "setting": "[2]", "value": "enhanced"},
      {"measurement": "CD34+CD45+ cells", "setting": "[3]", "value": "significant increase"},
      {"measurement": "RUNX1c reporter activity", "setting": "RUNX1c+24 reporter", "value": "dose-dependent effect"},
      {"measurement": "B- and T-cells (CD19, CD3)", "setting": "[4]", "value": "not detected"},
      {"measurement": "engraftment in the contralateral leg", "setting": "[4]", "value": "no engraftment detected"},
      {"measurement": "engraftment of myeloid cells (CD33)", "setting": "[4]", "value": "clear population expressing the myeloid marker CD33"},
      {"measurement": "chimerism of human CD45+ cells in the bone marrow", "setting": "[4]; one mouse", "value": 0.017, "unit": "%"}
    ]}
  ]
}
